# Measurements from patent US20250195528A1, “DOSE REGIMEN OF VICASINABIN” (Hoffmann-La Roche Inc., priority 2022, published 2025).
# Entries after “also recorded” stand apart in the source; their conditions may differ.
# Columns and labels:
# [1] = system: 15-lipoxygenase, MAGL, diacylglycerol lipase, or FAAH enzymes; experiment: Functional cellular assays, enzymes of the endocannabinoid pathway; format: cell-based; conditions: 10 μM in mouse
# cynomolgus monkey CB2 = cynomolgus monkey CB2 (Macaca fascicularis, UniProt G7NVV5); experiment: Forskolin-stimulated cAMP inhibition in stably transfected CHO cells; format: cell-based
# Sequence of cynomolgus monkey CB2 (G7NVV5 1-360): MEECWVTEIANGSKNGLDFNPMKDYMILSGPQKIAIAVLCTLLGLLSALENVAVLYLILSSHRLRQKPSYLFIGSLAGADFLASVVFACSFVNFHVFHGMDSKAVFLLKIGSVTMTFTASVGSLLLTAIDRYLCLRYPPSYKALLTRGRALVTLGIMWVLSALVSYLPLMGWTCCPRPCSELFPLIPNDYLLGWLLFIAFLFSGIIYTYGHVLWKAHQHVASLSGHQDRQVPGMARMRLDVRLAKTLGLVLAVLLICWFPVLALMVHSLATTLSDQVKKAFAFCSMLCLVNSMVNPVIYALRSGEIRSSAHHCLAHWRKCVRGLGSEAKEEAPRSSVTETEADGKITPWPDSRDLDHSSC
# Excerpt: Inhibition of cAMP accumulation in Chinese hamster ovary cells stably expressing recombinant CB2 was used to determine the functional potency of RO6868847 for different CB2 species and the selectivity over the closely related CB1. […] Table 4 summarizes the potency from different CB2 species.
# CB2 receptor on B-cells = target: T1, CB2 receptor on B-cells (Homo sapiens, UniProt P34972); experiment: CB2 receptor target engagement on B-cells in blood of participants of Study BP40387; format: in vivo
# T1 construct: B cells show a low but robust surface expression of CB2; endogenous in cells; host or cells: B cells in human whole blood (healthy participants, diabetic patients)
# T1 sequence (P34972 whole entry): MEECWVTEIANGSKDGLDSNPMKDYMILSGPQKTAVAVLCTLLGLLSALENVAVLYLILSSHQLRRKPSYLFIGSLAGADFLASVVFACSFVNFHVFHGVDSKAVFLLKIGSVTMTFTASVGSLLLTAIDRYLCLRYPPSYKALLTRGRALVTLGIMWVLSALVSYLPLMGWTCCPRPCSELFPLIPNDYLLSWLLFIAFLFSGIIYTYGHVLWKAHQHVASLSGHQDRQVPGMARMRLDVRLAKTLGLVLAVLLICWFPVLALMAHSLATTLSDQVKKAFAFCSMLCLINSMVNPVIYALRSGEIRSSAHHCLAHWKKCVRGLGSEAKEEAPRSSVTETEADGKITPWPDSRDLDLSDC
# Description: In the Phase I single ascending dose (SAD) and multiple ascending dose (MAD) study (BP40387), CB2R-TE was measured in blood from healthy participants that received single and multiple 0.75-300 mg doses of RO6868847. Based on clinical RO6868847 pharmacokinetics (PK) and pharmacodynamics (PD; measured by CB2R-TE) data and accounting for the difference between healthy and diabetics subjects, the lower end of the 0.75 mg to 300 mg-dose range is expected to achieve approximately up to half-maximum CB2R-TE, whereas the higher end of that dose range is predicted to achieve maximum CB2R-TE.
# In example 2, target engagement of RO6868847 was assessed on circulating B-cells from whole blood samples utilizing a newly developed exploratory flow cytometry assay to monitor RO6868847-induced CB2 receptor internalization on B-cells. […] Upon treatment discontinuation CB2 receptor surface expression returned to baseline approximately within 1 week. Target engagement appeared to reach a plateau at doses of 100 mg RO6868847 with only marginal increases at higher doses of RO6868847. In example 2, pro-inflammatory cytokine production was induced by ex vivo stimulation with LPS in freshly obtained whole blood samples, to measure downstream markers of RO6868847-mediated CB2 receptor internalization and explore its pharmacological profile. Serum levels of TNF-α, G-CSF, IL-1β, and […], of participants in Study BP40387 were assessed to investigate the changes of these cytokines in the presence of repeated dose administration of up to 300 mg RO6868847 once-daily for 14 days. […] It should be noted that the IL1-β analysis was negatively affected by a substantial proportion of baseline data, not being reportable (see FIG. 8), especially at the highest tested doses of 300 mg of RO6868847. Substantial variability in these measurements was observed. However, this was expected and no dedicated predefined statistical analysis was performed since cohort sizes were small for this exploratory assessment.
# [2] = set-up: species or system human; conditions: in vivo
# Excerpt: In Study BP40387, in Part 1, 11 participants (24.4%), Part 2, 1 participant (12.5%), Part 3, 16 participants (40%), Part 4, 12 participants (70.6%) and Part 5, 2 participants (11.1%), had reported at least 1 AE (see Table 22). One participant (5.9%) in Part 4 of the study was withdrawn by the investigator because of AEs. The AEs reported in more than 2 participants in Part 1 was medical device site erythema (6 participants in each PT) and vascular procedure complication (2 participants in each PT), in Part 3 was medical device site erythema (5 participants in each PT), constipation (3 participants in each PT) medical device site papule, medical device site pruritus, vascular procedure complication, headache (each 2 participants), and in Part 4 constipation (2 participants in each PT). […] The event was considered to be related to vicasinabin by the investigator and resolved without sequelae within one week after treatment discontinuation.
# leukostasis in the eye = experiment: Leukostasis in the eye, rodent diabetic and non-diabetic model; format: in vivo
# Description: (§1) Pharmacological studies were performed in vitro and in vivo to investigate the potency, selectivity and activity of RO6868847. Pharmacological effects were determined in vivo in two different diabetic animal models which include the streptozotocin (STZ)-induced rat Type 1 diabetes and genetic Type 2 diabetes mouse models as well as in two acute models with acute inflammatory stimulus (LPS-injections) or laser injury (CNV). Additional in vitro pharmacology studies were performed to explore the pharmacological effect of RO6868847 and the suitability of the assays as biomarkers of target engagement and pharmacodynamic effect (PD) in human whole blood obtained from either healthy volunteers or diabetic patients.
# (§2) The diversity of the tested models (including acute challenge versus disease-modifying models) and the absence of a recommended nonclinical DME/DR model with proven clinical translatability presents a challenge for the estimation of pharmacologically active exposure in humans.
# [3] = system: STZ-induced Type 1 diabetes; format: in vivo; conditions: rat, 10 mg/kg
# Description: as §1, §2
# Exposure was derived from satellite animals or extrapolated from previous PK or PD studies in the same species. […]
# human CB2 = target: T2, human CB2 (Homo sapiens, UniProt P34972); experiment: Radioligand binding to CB2, U698M cells expressing endogenous CB2
# T2 construct: expressed in transfected cells; host or cells: CHO cells
# T2 sequence (P34972 whole entry): as above
smiles,measurement,setting,value
"Cn1nnnc1Cn1nnc2c(N3CC[C@H](O)C3)nc(C(C)(C)C)nc21 [RO6868847, (3S)-1-[5-tert-butyl-3-[(1-methyltetrazol-5-yl)methyl]triazolo[4,5-d]pyrimidin-7-yl]pyrrolidin-3-ol]",activity at endocannabinoid pathway enzymes,[1],no activity
same,IC50,cynomolgus monkey CB2; CHO cells,1.06 ± 0.08 nM
same,Emax,"cynomolgus monkey CB2; CHO, normalized to 10 μM CP55′940",94.6%
same,time for CB2 receptor surface expression to return to baseline,CB2 receptor on B-cells; after treatment discontinuation,≤ 1 week
same,dose at which target engagement reaches a plateau,CB2 receptor on B-cells; multiple dose,100 mg
same,CB2 receptor target engagement on B-cells in blood,CB2 receptor on B-cells; single and multiple oral doses up to 300 mg,"reversible, dose-dependent and sustained; also recorded: dose-dependent, long-lasting, but reversible"
same,participants withdrawn because of AEs,"[2]; both, human, 14 days",5.9%
same,"clinical laboratory parameters, ECGs, vital signs, C-SSRS, VAS, TBNK assay, neurological examinations",[2],No specific concerns
same,leukostasis in the eye,leukostasis in the eye,inhibition of leukostasis in the eye
same,effect on disease marker,[3],full effect
same,"unbound AUC0-24 [S-epimer], upper bound of pharmacologically active exposure",[3]; in vivo,546 ng·hr/mL
same,IC50,human CB2,92.2 ± 13.1 nM
same,Ki,human CB2,62.8 nM
